Patent US10047104B2, “Bicyclic heterocyclyl derivatives as IRAK4 inhibitors” (Aurigene Discovery Technologies Limited, priority 2014, dated 2018)
pIC50: −log10 of the molar value. Counter-ions that a name gives are not always drawn.

target: T1, recombinant IRAK-4 kinase (Homo sapiens, UniProt Q9NWZ3); assay: IRAK-4 Biochemical Assay (TR-FRET); settings: 5 ng IRAK-4 kinase, 100 nM Biotin Histone H3, 20 μM ATP, 30 minutes pre-incubation, read-out: IC50 values for IRAK4 activity
T1 construct: purchased Millipore, USA
T1 sequence (Q9NWZ3 1-460): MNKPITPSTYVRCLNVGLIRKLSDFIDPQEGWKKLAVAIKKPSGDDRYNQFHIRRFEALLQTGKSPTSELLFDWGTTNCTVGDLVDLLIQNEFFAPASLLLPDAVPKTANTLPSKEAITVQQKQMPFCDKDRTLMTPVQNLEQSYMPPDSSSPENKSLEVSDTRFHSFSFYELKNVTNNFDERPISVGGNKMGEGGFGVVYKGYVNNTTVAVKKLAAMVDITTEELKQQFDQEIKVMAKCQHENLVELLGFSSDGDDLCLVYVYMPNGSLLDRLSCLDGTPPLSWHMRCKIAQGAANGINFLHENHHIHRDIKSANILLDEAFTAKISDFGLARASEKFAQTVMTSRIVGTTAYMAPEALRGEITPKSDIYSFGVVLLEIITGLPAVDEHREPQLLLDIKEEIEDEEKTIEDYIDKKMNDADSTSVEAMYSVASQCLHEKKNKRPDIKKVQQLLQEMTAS
Protocol: Compounds were tested for their potential to inhibit IRAK-4 enzyme in a TR-FRET assay using recombinant IRAK-4 kinase from Millipore, USA. The assay buffer was 50 mM Tris-HCl pH 7.5, 20 mM MgCl2, 1 mM EGTA, 2 mM DTT, 3 mM MnCl2 and 0.01% Tween20. 5 ng of IRAK-4 kinase was used for the assay. After pre-incubation of enzyme with test compound for 30 minutes at room temperature, a substrate mix containing 100 nM Biotin Histone H3 (Millipore, USA) and 20 μM ATP (Sigma, USA) was added and the reaction was incubated for 30 minutes. Post incubation, the reaction was stopped by the addition of stop mix containing 40 mM EDTA, 1 nM of Europium-Anti-Phospho-Histone H3 (Ser10) antibody (Perkin Elmer, USA) and 20 nM Sure Light Allophycocyanin-Streptavidin (Perkin Elmer, USA).

| Structure (SMILES) | pIC50 |
| --- | --- |
| O=C(Nc1cc2oc(N3CCCCC3)nc2nc1N1CCCCC1)c1cccc(-c2cn[nH]c2)n1 [Example 4, N-(2,5-di(piperidin-1-yl)oxazolo[4,5-b]pyridin-6-yl)-6-(1H-pyrazol-4-yl)picolinamide hydrochloride] | 7.00 to 7.30 |
| Cc1cc(-c2nc(C(=O)Nc3cc4oc(N5CCOCC5)nc4nc3N3CCC3)co2)ccn1 [Example 110, N-(5-(azetidin-1-yl)-2-morpholinooxazolo[4,5-b]pyridin-6-yl)-2-(2-methylpyridin-4-yl)oxazole-4-carboxamide] | > 7.30 |
| Cn1cc(-c2cccc(C(=O)Nc3cc4oc(N5CCCCC5)nc4nc3N3CCCCC3)n2)cn1 [Example 9, N-(2,5-di(piperidin-1-yl)oxazolo[4,5-b]pyridin-6-yl)-6-(1-methyl-1H-pyrazol-4-yl)picolinamide] | 7.00 to 7.30 |
| O=C(Nc1cc2sc(N3CCOCC3)nc2nc1N1CCCCC1)c1cccc(N2CC[C@H](O)C2)n1 [Example 63, (S)-6-(3-hydroxypyrrolidin-1-yl)-N-(2-morpholino-5-(piperidin-1-yl)thiazolo[4,5-b]pyridin-6-yl)picolinamide] | > 7.30 |
| Cc1cc(-c2nc(C(=O)Nc3cc4sc(N5CCCC(O)C5)nc4nc3N3CCC(O)CC3)co2)ccn1 (centres unmarked) [Example 126, N-(2-(3-hydroxypiperidin-1-yl)-5-(4-hydroxypiperidin-1-yl)thiazolo[4,5-b]pyridin-6-yl)-2-(2-methylpyridin-4-yl)oxazole-4-carboxamide] | > 7.30 |
| O=C(Nc1cc2sc(N3CCOCC3)nc2nc1N1CCC1)c1cccc(N2CC[C@H](O)C2)n1 [Example 79, (S)—N-(5-(azetidin-1-yl)-2-morpholinothiazolo[4,5-b]pyridin-6-yl)-6-(3-hydroxypyrrolidin-1-yl)picolinamide] | 7.00 to 7.30 |
| O=C(Nc1cnc2nc(N3CCOCC3)sc2c1)c1cccc(-c2cn[nH]c2)n1 [Example 17, N-(2-morpholinothiazolo[4,5-b]pyridin-6-yl)-6-(1H-pyrazol-4-yl)picolinamide] | < 7.00 |
| Cc1cc(-c2nc(C(=O)Nc3cc4oc(N5CCOCC5)nc4nc3N[C@H]3CCNC3)co2)ccn1 [Example 11, (S)-2-(2-methylpyridin-4-yl)-N-(2-morpholino-5-(pyrrolidin-3-ylamino)oxazolo[4,5-b]pyridin-6-yl)oxazole-4-carboxamide] | > 7.30 |
| O=C(Nc1cc2oc(N3CCCCC3)nc2nc1N1CCCCC1)c1coc(-c2ccnc(Cl)c2)n1 [Example 10, 2-(2-chloropyridin-4-yl)-N-(2,5-di(piperidin-1-yl)oxazolo[4,5-b]pyridin-6-yl)oxazole-4-carboxamide] | > 7.30 |
| Cc1cc(-c2ccc(C(=O)Nc3cc4sc(N5CCOCC5)nc4nc3N3CCC[C@@H](O)C3)o2)ccn1 [Example 95, (R)—N-(5-(3-hydroxypiperidin-1-yl)-2-morpholinothiazolo[4,5-b]pyridin-6-yl)-5-(2-methylpyridin-4-yl)furan-2-carboxamide] | > 7.30 |
| O=C(Nc1cc2sc(N3CCOCC3)nc2nc1C1CC1)c1cccc(N2CC[C@H](O)C2)n1 [Example 72, (S)—N-(5-cyclopropyl-2-morpholinothiazolo[4,5-b]pyridin-6-yl)-6-(3-hydroxypyrrolidin-1-yl)picolinamide] | > 7.30 |
| Cc1cc(-c2ccc(C(=O)Nc3cc4oc(N5CCOCC5)nc4nc3N3CCCCC3)o2)ccn1 [Example 113, 5-(2-methylpyridin-4-yl)-N-(2-morpholino-5-(piperidin-1-yl)oxazolo[4,5-b]pyridin-6-yl)furan-2-carboxamide] | > 7.30 |
| Cc1cc(-c2nc(C(=O)Nc3cc4oc(N5CCOCC5)nc4nc3N3CCN(C)CC3)co2)ccn1 [Example 25, N-(5-(4-methylpiperazin-1-yl)-2-morpholinooxazolo[4,5-b]pyridin-6-yl)-2-(2-methylpyridin-4-yl)oxazole-4-carboxamide] | > 7.30 |
| N[C@H]1CCN(c2nc(C(=O)Nc3cc4sc(N5CCOCC5)nc4nc3C3CC3)co2)C1 [Example 68, (S)-2-(3-aminopyrrolidin-1-yl)-N-(5-cyclopropyl-2-morpholinothiazolo[4,5-b]pyridin-6-yl)oxazole-4-carboxamide] | 7.00 to 7.30 |
| COc1ccc(-c2nc(C(=O)Nc3cc4oc(N5CCOCC5)nc4nc3N3CC[C@H](O)C3)co2)cn1 [Example 103, (S)—N-(5-(3-hydroxypyrrolidin-1-yl)-2-morpholinooxazolo[4,5-b]pyridin-6-yl)-2-(6-methoxypyridin-3-yl)oxazole-4-carboxamide] | < 7.00 |
| Cc1cc(-c2nc(C(=O)Nc3cc4sc(N5CCCC(O)C5)nc4nc3N3CCC(N)CC3)co2)ccn1 (centres unmarked) [Example 134, N-(5-(4-aminopiperidin-1-yl)-2-(3-hydroxypiperidin-1-yl)thiazolo[4,5-b]pyridin-6-yl)-2-(2-methylpyridin-4-yl)oxazole-4-carboxamide hydrochloride] | > 7.30 |
| Cc1cc(-c2nc(C(=O)Nc3cc4sc(N5CCOCC5)nc4nc3-c3cccc(F)c3)co2)ccn1 [Example 100, N-(5-(3-fluorophenyl)-2-morpholinothiazolo[4,5-b]pyridin-6-yl)-2-(2-methylpyridin-4-yl)oxazole-4-carboxamide] | > 7.30 |

Continued, values first:

| pIC50 | Structure (SMILES) |
| --- | --- |
| > 7.30 | Nc1cc(-c2nc(C(=O)Nc3cc4sc(N5CCOCC5)nc4nc3N3CCCCC3)co2)ccn1 [Example 92, 2-(2-aminopyridin-4-yl)-N-(2-morpholino-5-(piperidin-1-yl)thiazolo[4,5-b]pyridin-6-yl)oxazole-4-carboxamide hydrochloride] |
| > 7.30 | Cc1cc(-c2nc(C(=O)Nc3cc4sc(N5CCOCC5)nc4nc3N3CCCC3)co2)ccn1 [Example 89, 2-(2-methylpyridin-4-yl)-N-(2-morpholino-5-(pyrrolidin-1-yl)thiazolo[4,5-b]pyridin-6-yl)oxazole-4-carboxamide] |
| > 7.30 | Cc1cc(-c2nc(C(=O)Nc3cc4sc(N5CCOCC5)nc4nc3N3CC[C@@H](O)C3)co2)ccn1 [Example 85, (R)—N-(5-(3-hydroxypyrrolidin-1-yl)-2-morpholinothiazolo[4,5-b]pyridin-6-yl)-2-(2-methylpyridin-4-yl)oxazole-4-carboxamide] |
| > 7.30 | Cc1cc(-c2nc(C(=O)Nc3cc4sc(N5CCOCC5)nc4nc3N3CC[C@H](N)C3)co2)ccn1 [Example 67, (S)—N-(5-(3-aminopyrrolidin-1-yl)-2-morpholinothiazolo[4,5-b]pyridin-6-yl)-2-(2-methylpyridin-4-yl)oxazole-4-carboxamide] |
| > 7.30 | Cc1ncccc1-c1nc(C(=O)Nc2cc3oc(N4CCOCC4)nc3nc2N2CCCCC2)co1 [Example 32, 2-(2-methylpyridin-3-yl)-N-(2-morpholino-5-(piperidin-1-yl)oxazolo[4,5-b]pyridin-6-yl)oxazole-4-carboxamide] |
| > 7.30 | C[C@H](O)Cn1cc(-c2cccc(C(=O)Nc3cc4sc(N5CCOCC5)nc4nc3N3CCCCC3)n2)cn1 [Example 96, (S)-6-(1-(2-hydroxypropyl)-1H-pyrazol-4-yl)-N-(2-morpholino-5-(piperidin-1-yl)thiazolo[4,5-b]pyridin-6-yl)picolinamide] |
| > 7.30 | Cc1cc(-c2nc(C(=O)Nc3cc4sc(N5CCOCC5)nc4nc3N3CCCCC3)co2)ccn1 [Example 20, 2-(2-methylpyridin-4-yl)-N-(2-morpholino-5-(piperidin-1-yl)thiazolo[4,5-b]pyridin-6-yl)oxazole-4-carboxamide] |
| > 7.30 | CC(=O)Nc1cc(-c2nc(C(=O)Nc3cc4sc(N5CCOCC5)nc4nc3N3CCCC(O)C3)co2)ccn1 (centres unmarked) [Example 127, 2-(2-acetamidopyridin-4-yl)-N-(5-(3-hydroxypiperidin-1-yl)-2-morpholinothiazolo[4,5-b]pyridin-6-yl)oxazole-4-carboxamide] |
| > 7.30 | Cc1cc(-c2nc(C(=O)Nc3cc4sc(N5CCOCC5)nc4nc3N3CCC[C@H](N)C3)co2)ccn1 [Example 120, (S)—N-(5-(3-aminopiperidin-1-yl)-2-morpholinothiazolo[4,5-b]pyridin-6-yl)-2-(2-methylpyridin-4-yl)oxazole-4-carboxamide hydrochloride] |
| > 7.30 | Cc1cnccc1-c1nc(C(=O)Nc2cc3sc(N4CCOCC4)nc3nc2N2CCCCC2)co1 [Example 61, 2-(3-methylpyridin-4-yl)-N-(2-morpholino-5-(piperidin-1-yl)thiazolo[4,5-b]pyridin-6-yl)oxazole-4-carboxamide] |
| > 7.30 | Cc1cc(-c2nc(C(=O)Nc3cc4sc(N5CCOCC5)nc4nc3N3CCC(F)CC3)co2)ccn1 [Example 98, N-(5-(4-fluoropiperidin-1-yl)-2-morpholinothiazolo[4,5-b]pyridin-6-yl)-2-(2-methylpyridin-4-yl)oxazole-4-carboxamide] |
| > 7.30 | COc1cc(-c2nc(C(=O)Nc3cc4sc(N5CCOCC5)nc4nc3N3CCCCC3)co2)ccn1 [Example 58, 2-(2-methoxypyridin-4-yl)-N-(2-morpholino-5-(piperidin-1-yl)thiazolo[4,5-b]pyridin-6-yl)oxazole-4-carboxamide] |
